Test results: patent US20120035187A1 (priority 2009, published 2012)
Read-outs that look alike come from different tables or passages of the source. Marks after values point to notes of the source that are not given here.

Tests used:
[1] = tested on: C57BL/6J mice with cerebrovascular dementia; assay: Novelty object recognition test, mouse with cerebrovascular dementia (ligation of right common carotid artery); format: in vivo; conditions: for Object discrimination index: mice with ligation of right common carotid artery, NK-4 i.p. five days a week
[2] = tested on: intracellular cyclic adenosine monophosphate (AMP); assay: Increment of intracellular cyclic AMP; format: cell-based
APP Tg mouse = assay: Water maze test, APP transgenic mouse; format: in vivo; conditions: for Water maze test 1st day / Water maze test 2nd day / Water maze test 3rd day / Water maze test 4th day: time required for arriving the platform
SAPK/JNK = assay: Phosphorylation of SAPK/JNK by hydrogen-peroxide-induced cell injury; format: cell-based
PC12-HS cells [3] = tested on: PC12-HS cells
Protocol: The cells were cultured with a serum-free medium as a nutrition-starvation-condition. PC12-HS cells were subjected to tests after stock cultured cells thereof were thawed and cultured with a D-MEM medium supplemented with 10% by volume of fetal bovine serum (FBS). […] As a control, cells were cultured with a NK-4 free D-MEM medium and, similarly as above, cultured after the addition of an ALAMAR BLUE solution commercialized by Trek Diagnostic Systems Inc., Ohio, USA, and measured for fluorescent intensity for each well. Relative values for cells in each well were determined when the fluorescent intensity for control was regarded as 100%, and the data are also shown in Table 1 as survival percentages (%) of cells in each well.

PC12-HS cells [4] = conditions: 6-hydroxy dopa, 24 hours
Protocol: 6-Hydroxy dopa was used as a cytotoxic agent. Similarly as in Experiment 1, PC12-HS cells, which had been cultured in D-MEM medium supplemented with 10 v/v % FBS, were inoculated to 96-well microplates by 2×10^4/100 μl/well. […] Thereafter, the cells were fixed with 10% glutaraldehyde and the absorbance at 650 nm was measured by conventional dye-uptake method using methylene blue.

## CCN1C=CC(=CC=C(C=Cc2cc[n+](CC)c3ccccc23)c2cc[n+](CC)c3ccccc23)c2ccccc21.[I-].[I-] [NK-4]
[1]; mice with cerebrovascular dementia, i.p. five days a week
  adverse effect: No adverse effect
[1]; On the 3rd week after operation
  Object discrimination index: 0.51 ± 0.22
[1]; On the 4th week after operation
  Object discrimination index: 0.31 ± 0.20
[2]
  increment of intracellular cyclic adenosine monophosphate (AMP): inducing the increment of intracellular cyclic adenosine monophosphate (AMP)
APP Tg mouse; dose 100 μg/kg body weight
  Water maze test 1st day: 101 ± 38
  Water maze test 2nd day: 73 ± 13
  Water maze test 3rd day: 59 ± 10
  Water maze test 4th day: 34 ± 10
APP Tg mouse; dose 500 μg/kg body weight
  Water maze test 1st day: 116 ± 3
  Water maze test 2nd day: 63 ± 12
  Water maze test 3rd day: 40 ± 7
  Water maze test 4th day: 27 ± 7
APP Tg mouse; i.p. five times a week for 12 weeks
  water maze test (in words): improved the dementia
SAPK/JNK
  phosphorylation of SAPK/JNK: inhibits the phosphorylation of SAPK/JNK
PC12-HS cells [3]; NK-4 500 ng/ml
  Survibal percentage of cells when admixed with cytotoxic factor (%) Nutrition starvation: 78 ** %
PC12-HS cells [3]; NK-4 5000 ng/ml
  Survibal percentage of cells when admixed with cytotoxic factor (%) Nutrition starvation: 64 ** %
PC12-HS cells [3]; PC12-HS cells
  concentration required for protection action against nutrition starvation: 500 ng/mL
PC12-HS cells [3]; PC12-HS cells, FBS-free medium, 3 days, NK-4 50 ng/ml, control free of cytotoxic factor = 100
  Survibal percentage of cells when admixed with cytotoxic factor (%) Nutrition starvation: 47%
PC12-HS cells [4]
  suppression of cytotoxicity by 6-hydroxy dopa (in words): significantly suppressed
PC12-HS cells [4]; compound 0.83 ng/ml
  Survival-cell percentage (%): 59 ± 3%
PC12-HS cells [4]; compound 3.3 ng/ml
  Survival-cell percentage (%): 65 ± 4%
PC12-HS cells [4]; compound 13 ng/ml
  Survival-cell percentage (%): 69 ± 6 %
PC12-HS cells [4]; compound 50 ng/ml
  Survival-cell percentage (%): 70 ± 6 %
PC12-HS cells [4]; compound 200 ng/ml
  Survival-cell percentage (%): 76 ± 3 %
PC12-HS cells [4]; compound 800 ng/ml
  Survival-cell percentage (%): 92 ± 4 %
